Laboratory results from PMC8160934, “Different Biological Activities of Histidine-Rich Peptides Are Favored by Variations in Their Design” (Toxins, 2021).
Values after ≈ are worked out from the molar mass of the structure shown. “Also recorded” adds a separate entry of the source. Where two headings read alike, the source gives them in different places. Where a SMILES comes first, the peptide text is derived from it.

Columns and labels:
[1] = naturally occurring antimicrobial peptides; cited from earlier work
From the text: The pronounced antimicrobial activities of cationic amphipathic peptides including LAH4 sequences have been associated with the perforation of microbial membranes. Indeed, under conditions where the peptides align along the membrane surface, high concentrations of LAH4 peptides result in the lysis of lipid bilayers. It is therefore unexpected that antimicrobial activity is highest for large hydrophilic angles, i.e., in inverse correlation with calcein release (Table 2, Figure 5). However, some of the naturally occurring antimicrobial pept ...

HCT116 cells [2] = assay: Saporin delivery, MTS cell viability; format: cell-based, human; settings: HCT116, 0.54 µg/triplicate non-complexed saporin, 2 h 30 min, MTS two days later; result in words
Description: Figure 2 Transduction of the plant toxin saporin. HCT116 cells plated in 96-well plates were treated with 0.54 µg/triplicate of saporin in the absence or presence of LAH4 peptides (LAH4-Ln series in (A) and LAH4-An series in (B)). […] Two days later, an MTS assay was performed. The cell viability efficiency is expressed relative to untreated cells (=100%). […] For each peptide 3 conditions were tested: 4.05, 5.4 and 8.1 µg of peptide/0.54 µg saporin. Untreated cells (=100%; purple bar) and non-complexed saporin (black bar) were used as the control. The hydrophilic angles are shown on top in italics. […] The cell viability values appear only as bars and are not printed, so none are given. […]
Cell metabolic activity was measured by using an MTS (3-(4,5-dimethylthiazol-2-yl)-5-(3-carboxymethoxyphenyl)-2-(4-sulfophenyl)-2H-tetrazolium) assay (CellTiter 96® AQ ueous One Solution Cell Proliferation Assay, Promega). […] Plates were read at 490 nm (reagent absorbance) and 680 nm (background) (SP200, Safas, Monaco). The results were expressed by the subtraction of background absorbance and the expression of viability relative to non-treated controls (considered as 100% viability).

[3] = system: E. coli bacteria (ATCC 25922); assay: Broth microdilution antibacterial assay (MIC) in Mueller–Hinton broth, pH 5; format: cell-based; settings: for MIC50: E. coli, Mueller–Hinton broth pH 5, x50 from Origin fits of the growth curves of Figure 3 (concentration range 100 µM to 0.52 µM), fit error given, * error estimated in the range of the 1.5-fold dilution steps
Description: Therefore, the antibacterial properties of both series of peptides were analyzed in Mueller–Hinton (MH) broth at pH 5 by determining the minimal inhibitory concentrations (MICs).
Figure 3 Bacterial growth as a function of peptide concentration for the LAH4-Ln (A) and the LAH4-An series (B). The average of two experimental data sets (each data point derived from triplicates under the same experiment conditions) covering the concentration range 100 µM to 0.52 µM are shown by the relative bacterial growth when compared to bacteria in the absence of peptide (=100%). To guide the eye, the data have been fitted with the function ymin + (ymax − ymin)/(1 + (x/xo)^p)^s using the OriginPro software. […] The assay was performed in Mueller–Hinton broth, pH 5.
A broth microdilution assay was used to determine the minimal inhibitory concentration (MIC). A peptide aliquot of 1 mg was first solubilized in 50% ethanol (10 mM) then diluted in H2O to get a 300 μM peptide stock solution.
For all the activity tests, E. coli bacteria (ATCC® 25922^TM, Thermo Fisher Scientific, Courtaboeuf, France) were used. Briefly, some colonies from E. coli spread on gelose were resuspended in Mueller–Hinton broth, pH 7.4. After incubation at 37 °C for about 6 h this preculture was diluted to OD550nm = 0.2 in MH at pH5 and allowed to grow to reach the exponential phase (OD550nm = 1–2). After two-step dilution in MH pH5, the working bacteria suspension corresponding to 1.10^5–2.10^5 colony-forming units (CFU)/mL was obtained.
The antimicrobial testing was carried out in 96-well microplates (sterile polystyrene untreated with F-bottom, Thermo Scientific Nunc A/S, Roskilde, Denmark). The first column of the plate contains the highest final concentration (Cf) of peptide to test (two experiments were done: the first one starting at Cf 100 μM and a second one starting at 30 μM). All samples were added to the first column of the plate and subsequently spread onto the plate by a 1.5-fold dilution series in 10 steps. The last columns correspond to the positive and negative control conditions, respectively. Finally, the bacterial working suspension was distributed (50 μL at 1.10^5–2.10^5 CFU/mL in MH1X at pH 5) to each well except for the negative control (MH1X at pH5). The final volume was 100 μL/well and the range of peptide concentrations tested was from 100 μM to 1.73 μM for the first experiment and from 30 μM to 0.52 μM for the second experiment. The microplates were incubated at 37 °C for 12 h before bacterial growth was assessed by measuring the OD600. The initial bacterial density for each experiment was checked by spreading 100 μL of the working bacterial suspension, diluted 1/100 and 1/500 in MH1X, pH 5 on MH agar plates. After overnight incubation at 37 °C, the CFU were counted and the CFU/mL were determined. The percentage of bacterial growth compared to the positive control allows one to determine the MIC. The MIC values represent the average of the lowest tested peptide concentration (from both experiments) where most (at least 80%) of the bacterial growth is inhibited.

[4] = system: VSV and GALVTR pseudotyped lentiviruses; settings: cited from earlier work
[5] = in the transfection and other phosphate-containing buffers; cited from earlier work
HCT116 cells [6] = assay: Luciferase protein transduction; format: cell-based, human; settings: HCT116, 2 µg recombinant luciferase with 10-32 µg peptide, 3 h in serum-free medium, mean of duplicates; result in words
Description: To perform a rapid screening of the protein transduction activities of the two series of peptides, we selected to deliver the luciferase protein from Photinus pyralis, which has a molecular weight (MW) of 62 kDa and an isoelectric point (pI) of 6.3. Indeed, the measurement of the activity of this enzyme is fast and very sensitive. […] Increasing amounts of peptides were added to a fixed amount of luciferase, and after 3 h of incubation with the human colon cancer cells HCT116, enzymatic activity was measured.
Figure 1 Transduction of the luciferase protein. HCT116 cells in 48-well plates were treated with 2 µg of recombinant luciferase (Rec. Luc) (per duplicate) in the presence or absence of LAH4 peptides (LAH4-Ln series in (A) and LAH4-An series in (B)). After 3 h of incubation in serum-free medium, cells were washed once with 1 mL/well of phosphate buffer saline (PBS), lysed, and the luciferase activity was determined. […] For each peptide, four conditions were tested: 10, 16, 24 and 32 µg of peptide/2 µg recombinant luciferase, except for LAH4 (16, 24 and 32 µg). Non-complexed recombinant luciferase was used as the control (black bar). The hydrophilic angles are shown in italics. […] It is uncertain whether it counts as a property result. The luciferase activities are shown only as bars, with no printed numbers, and are left out.
Protein complexes were generated using increasing peptide/protein w/w ratios.
Then, 0.25 mL of serum-free medium containing the peptide/protein complexes was transferred into each well. After an incubation time of 3 h at 37 °C the medium was removed, cells were washed once with 1 mL/well of PBS, and then 100 μL of lysis buffer was added per well. Luciferase activity and protein content were measured as described above.

[7] = system: E. coli bacteria (ATCC 25922); settings: cited from earlier work
Description: Therefore, the antibacterial properties of both series of peptides were analyzed in Mueller–Hinton (MH) broth at pH 5 by determining the minimal inhibitory concentrations (MICs). […] Higher antimicrobial activity is observed when the angle increases. […] In contrast, for ...

U87 cells = assay: DNA transfection with p-Luc plasmid, luciferase expression; settings: 1.5 µg pDNA with 7.5-25 µg peptide, 2 h 30 min, read one day post-transfection, mean of duplicates, result in words
Description: In vitro cell transfection experiments were performed using the plasmid p-Luc (7.6 kb), which is an expression plasmid encoding the firefly luciferase gene under the control of the human cytomegalovirus (CMV) immediate–early promoter. In total, 55,000 U87 cells were plated in 48-well plates one day before the experiment was performed. For transfection, 0.25 mL of serum-free culture medium containing the DNA complexes was deposited into each well of the duplicate. After incubation for approximately 2 h 30 min at 37 °C the medium was replaced with a fresh one containing serum. Luciferase activity was measured as described below in the cell lysate one day after transfection.
Transfection complexes were prepared as follows: for a duplicate, 1.5 μg of plasmid DNA and the desired amount of peptide were each diluted into 25 μL of acetate buffer pH 5 and gently mixed. DNA complexes were generated using increasing peptide/DNA w/w ratios. After 20 min of incubation at room temperature, the mixture was diluted with culture medium to obtain a final volume of 0.5 mL.
For luciferase activity, cells were harvested in 100 μL of lysis buffer (8 mM MgCl2, 1 mM DTT, 1 mM EDTA, 0.6% Triton X-100, 15% glycerol, and 25 mM Tris-phosphate buffer pH 7.8). The cell lysate was then transferred into Eppendorf tubes and centrifuged for 7 min at 10,000× g to pellet debris. Luciferase light units were measured in a 96-well plate format with a Centro LB luminometer (Berthold) from an aliquot of the supernatant (2 μL) with 1 s integration after automatic injection of 50 μL assay buffer (lysis buffer without Triton X-100 but supplemented with 2 mM ATP) and 50 μL of a luciferin solution (167 μM in water). Luciferase background was subtracted from each value and the protein content of the transfected cells was measured by Bradford dye-binding using the BioRad protein assay (Bio-Rad). The transfection efficiency was expressed as light units/s/mg protein (light units measured over a period of 1 s, and the values were then normalized after measurement of the amount of protein present in each well). The reported values are the mean of duplicates. Error bars represent the standard deviation of the mean.
glioblastoma U87 cells. Increasing amounts of peptide were mixed with a constant amount of reporter
plasmid (1.5 µg per duplicate of pDNA) and the complexes were incubated for 2h 30min with the
cells plated in 48-well plates. The transfection medium was then removed and replaced with fresh
culture medium supplemented with 10% serum. Luciferase activity was measured one day post-
transfection. The transfection efficiency is expressed as light units/s/mg protein and the reported
values are the mean of duplicates. Error bars represent the standard deviation of the mean.

magainin 2
hydrophilic angle [1]: 180 °

saporin
cell death induced by saporin alone (HCT116 cells [2]): low levels of cell death

H-KKALLHAALAHLLALAHHLLALLKKA-NH2 [LAH4-A4, isomer of LAH4, LAH4-An series, also named Vectofusin-1]
MIC50 [3]: 6 µM | lentiviral transduction enhancement [4]: highly efficient; also recorded: enhances the transduction | formation of fibers [5]: formation of fibers

cecropin
hydrophilic angle [1]: 180 °

H-KKALLALALHHLAHLALHLALALKKA-NH2 [LAH4]
luciferase protein transduction efficiency (luciferase activity, light units/s/mg protein) (HCT116 cells [6]): the most efficient peptides | pH dependence of antimicrobial activity ([7]; E. coli, pH 5 compared to pH 7.5, result in words): considerably more pronounced at pH 5 | MIC ([7]; reference peptide LAH4, E. coli): 8.8 µM

CC(C)C[C@H](NC(=O)[C@H](C)NC(=O)[C@H](C)NC(=O)[C@H](CC(C)C)NC(=O)[C@H](CC(C)C)NC(=O)[C@H](Cc1c[nH]cn1)NC(=O)[C@H](CC(C)C)NC(=O)[C@H](C)NC(=O)[C@H](Cc1c[nH]cn1)NC(=O)[C@H](C)NC(=O)[C@H](CC(C)C)NC(=O)[C@H](CC(C)C)NC(=O)[C@H](C)NC(=O)[C@H](CCCCN)NC(=O)[C@@H](N)CCCCN)C(=O)N[C@@H](C)C(=O)N[C@@H](CC(C)C)C(=O)N[C@@H](Cc1c[nH]cn1)C(=O)N[C@@H](CC(C)C)C(=O)N[C@@H](C)C(=O)N[C@@H](Cc1c[nH]cn1)C(=O)N[C@@H](CC(C)C)C(=O)N[C@@H](CC(C)C)C(=O)N[C@@H](CCCCN)C(=O)N[C@@H](CCCCN)C(=O)N[C@@H](C)C(N)=O [LAH4-A1] (H-KKALLAHALHLLAALALHLAHLLKKA-NH2)
MIC ([3]; E. coli ATCC 25922, broth microdilution, Mueller–Hinton broth pH 5, 37 °C, 12 h, OD600, concentration at which bacterial growth reaches a minimum (at least 80% inhibited), average of two experiments, each in triplicate): 25 µM (≈ 69.5 µg/mL) | MIC50 [3]: 13.9 µM (≈ 38.6 µg/mL) | luciferase protein transduction efficiency (luciferase activity, light units/s/mg protein) (HCT116 cells [6]): among the least efficient | DNA transfection activity (luciferase activity) (U87 cells): highest activity
